{
  "source": "paper PMC4818699",
  "about": "(Angewandte Chemie (International ed. in English), 2016)",
  "test_system": "MoeN5 (MoeN5-CS) (Streptomyces viridosporus)",
  "sequence (A0A010 1-260)": "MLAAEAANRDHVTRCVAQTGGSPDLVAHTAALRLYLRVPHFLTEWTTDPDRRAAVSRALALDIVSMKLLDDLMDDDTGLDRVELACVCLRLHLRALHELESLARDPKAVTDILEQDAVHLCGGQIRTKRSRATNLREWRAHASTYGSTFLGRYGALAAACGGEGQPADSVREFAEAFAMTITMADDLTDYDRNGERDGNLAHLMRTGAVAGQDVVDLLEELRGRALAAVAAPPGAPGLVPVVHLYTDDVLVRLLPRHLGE",
  "assay": "X-ray crystal structure of the complex",
  "assay_type": "binding",
  "details": "allylic site S1, near Asp-rich motifs; also PDB 5B03",
  "data": [
    {"smiles": "CC(C)=CCC/C(C)=C/COP(=O)(O)OP(=O)(O)O", "note": "[compound 6, geranyl diphosphate]", "values": [
      {"measurement": "X-ray crystal structure of the complex", "value": "GPP binds to MoeN5-CS close to the Asp-rich domains"}
    ]}
  ]
}
